Key:
Experiment in all cases: post-emergence herbicidal activity, greenhouse
Format in all cases: in vivo
Barnyardgrass = tested on: Barnyardgrass
Outline: (§1)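 Injury versus control pans was recorded at about 2 and 4 weeks post-treatment. Treatment was post-emergence: an atomizer spray holding roughly 0.4% by weight emulsifier and enough candidate chemical for the tabulated rates, applied to two-to-three-week-old plants raised in top-soil pans.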

Pennsylvania Smartweed = tested on: Pennsylvania Smartweed
Outline: as §1

Common Lambsquarters = tested on: Common Lambsquarters
Outline: as §1

Yellow Nutsedge = details: Table II
Outline: as §1

Large Crabgrass = details: Table III
Outline: as §1

[1] = Table II, 4 WAT, 11.2 kg/h, formulated in anhydrous tetrahydrofuran
[2] = Table III, 2 WAT, 1.1 kg/h, formulated in anhydrous tetrahydrofuran
[3] = Table III, 2 WAT, 5.6 kg/h, formulated in anhydrous tetrahydrofuran
[4] = Table III, 2 WAT, .28 kg/h, formulated in anhydrous tetrahydrofuran
[5] = Table III, 4 WAT, 1.1 kg/h, formulated in anhydrous tetrahydrofuran
[6] = Table III, 4 WAT, 5.6 kg/h, formulated in anhydrous tetrahydrofuran
[7] = Table III, 4 WAT, .28 kg/h, formulated in anhydrous tetrahydrofuran
[8] = Table II, 2 WAT, 5.6 kg/h, formulated in anhydrous tetrahydrofuran
[9] = Table II, 2 WAT, 11.2 kg/h, formulated in anhydrous tetrahydrofuran
[10] = Table II, 4 WAT, 5.6 kg/h, formulated in anhydrous tetrahydrofuran
[11] = 2 WAT, 5.6 kg/h, formulated in anhydrous tetrahydrofuran
[12] = 4 WAT, 5.6 kg/h, formulated in anhydrous tetrahydrofuran

For CCOC(=O)CNCP(=O)(O)O[Si](c1ccccc1)(c1ccccc1)C(C)(C)C [Ex. 7, Glycine, N--((([(1,1-Dimethylethyl)Diphenylsilyl]Oxy)Hydroxyphosphinyl)Methyl)-,Ethyl Ester], the “Plant Response Index (K)” value (Barnyardgrass; Table II, 4 WAT, 11.2 kg/h) was 4 (100% inhibition), the “Plant Response Index (K)” value (Barnyardgrass; [1]) was 3 (75-99% inhibition) and the “Plant Response Index (K)” value (Barnyardgrass; Table III, 2 WAT, 1.1 kg/h) was 3 (75-99% inhibition). For the same compound, the “Plant Response Index (K)” value (Barnyardgrass; [2]) was 2 (50-74% inhibition), the “Plant Response Index (K)” value (Barnyardgrass; Table III, 2 WAT, 5.6 kg/h) was 3 (75-99% inhibition) and the “Plant Response Index (K)” value (Barnyardgrass; [3]) was 3 (75-99% inhibition). The “Plant Response Index (K)” value (Barnyardgrass; Table III, 2 WAT, .28 kg/h) was 2 (50-74% inhibition), the “Plant Response Index (K)” value (Barnyardgrass; [4]) was 1 (25-49% inhibition) and the “Plant Response Index (K)” value (Barnyardgrass; Table III, 4 WAT, 1.1 kg/h) was 3 (75-99% inhibition). The “Plant Response Index (K)” value (Barnyardgrass; [5]) was 2 (50-74% inhibition), the “Plant Response Index (K)” value (Barnyardgrass; Table III, 4 WAT, 5.6 kg/h) was 3 (75-99% inhibition) and the “Plant Response Index (K)” value (Barnyardgrass; [6]) was 3 (75-99% inhibition). For the same compound, the “Plant Response Index (K)” value (Barnyardgrass; Table III, 4 WAT, .28 kg/h) was 2 (50-74% inhibition), the “Plant Response Index (K)” value (Barnyardgrass; [7]) was 1 (25-49% inhibition) and the “Plant Response Index (F)” value (Pennsylvania Smartweed; Table II, 2 WAT, 5.6 kg/h) was 2 (50-74% inhibition). For the same compound, the “Plant Response Index (F)” value (Pennsylvania Smartweed; [8]) was 1 (25-49% inhibition), the “Plant Response Index (F)” value (Pennsylvania Smartweed; Table II, 2 WAT, 11.2 kg/h) was 2 (50-74% inhibition) and the “Plant Response Index (F)” value (Pennsylvania Smartweed; [9]) was 1 (25-49% inhibition). The “Plant Response Index (F)” value (Pennsylvania Smartweed; Table II, 4 WAT, 5.6 kg/h) was 4 (100% inhibition), the “Plant Response Index (F)” value (Pennsylvania Smartweed; [10]) was 1 (25-49% inhibition) and the “Plant Response Index (F)” value (Pennsylvania Smartweed; Table II, 4 WAT, 11.2 kg/h) was 2 (50-74% inhibition). The “Plant Response Index (F)” value (Pennsylvania Smartweed; [1]) was 4 (100% inhibition), the “Plant Response Index (F)” value (Pennsylvania Smartweed; Table III, 2 WAT, 1.1 kg/h) was 3 (75-99% inhibition) and the “Plant Response Index (F)” value (Pennsylvania Smartweed; [2]) was 4 (100% inhibition). For the same compound, the “Plant Response Index (F)” value (Pennsylvania Smartweed; Table III, 2 WAT, 5.6 kg/h) was 2 (50-74% inhibition), the “Plant Response Index (F)” value (Pennsylvania Smartweed; [3]) was 4 (100% inhibition) and the “Plant Response Index (F)” value (Pennsylvania Smartweed; Table III, 2 WAT, .28 kg/h) was 3 (75-99% inhibition). For the same compound, the “Plant Response Index (F)” value (Pennsylvania Smartweed; [4]) was 2 (50-74% inhibition), the “Plant Response Index (F)” value (Pennsylvania Smartweed; Table III, 4 WAT, 1.1 kg/h) was 3 (75-99% inhibition) and the “Plant Response Index (F)” value (Pennsylvania Smartweed; [5]) was 4 (100% inhibition). For the same compound, the “Plant Response Index (F)” value (Pennsylvania Smartweed; Table III, 4 WAT, 5.6 kg/h) was 3 (75-99% inhibition), the “Plant Response Index (F)” value (Pennsylvania Smartweed; [6]) was 4 (100% inhibition) and the “Plant Response Index (F)” value (Pennsylvania Smartweed; Table III, 4 WAT, .28 kg/h) was 3 (75-99% inhibition). The “Plant Response Index (F)” value (Pennsylvania Smartweed; [7]) was 2 (50-74% inhibition), the “Plant Response Index (E)” value (Common Lambsquarters; Table II, 2 WAT, 5.6 kg/h) was 3 (75-99% inhibition) and the “Plant Response Index (E)” value (Common Lambsquarters; [8]) was 3 (75-99% inhibition). The “Plant Response Index (E)” value (Common Lambsquarters; Table II, 2 WAT, 11.2 kg/h) was 4 (100% inhibition), the “Plant Response Index (E)” value (Common Lambsquarters; [9]) was 4 (100% inhibition) and the “Plant Response Index (E)” value (Common Lambsquarters; Table II, 4 WAT, 5.6 kg/h) was 3 (75-99% inhibition). The “Plant Response Index (E)” value (Common Lambsquarters; [10]) was 3 (75-99% inhibition), the “Plant Response Index (E)” value (Common Lambsquarters; Table II, 4 WAT, 11.2 kg/h) was 4 (100% inhibition) and the “Plant Response Index (E)” value (Common Lambsquarters; [1]) was 4 (100% inhibition). For the same compound, the “Plant Response Index (E)” value (Common Lambsquarters; Table III, 2 WAT, 1.1 kg/h) was 4 (100% inhibition), the “Plant Response Index (E)” value (Common Lambsquarters; [2]) was 4 (100% inhibition) and the “Plant Response Index (E)” value (Common Lambsquarters; Table III, 2 WAT, 5.6 kg/h) was 3 (75-99% inhibition). For the same compound, the “Plant Response Index (E)” value (Common Lambsquarters; [3]) was 4 (100% inhibition), the “Plant Response Index (E)” value (Common Lambsquarters; Table III, 2 WAT, .28 kg/h) was 3 (75-99% inhibition) and the “Plant Response Index (E)” value (Common Lambsquarters; [4]) was 2 (50-74% inhibition). The “Plant Response Index (E)” value (Common Lambsquarters; Table III, 4 WAT, 1.1 kg/h) was 4 (100% inhibition), the “Plant Response Index (E)” value (Common Lambsquarters; [5]) was 4 (100% inhibition) and the “Plant Response Index (E)” value (Common Lambsquarters; Table III, 4 WAT, 5.6 kg/h) was 3 (75-99% inhibition). The “Plant Response Index (E)” value (Common Lambsquarters; [6]) was 4 (100% inhibition), the “Plant Response Index (E)” value (Common Lambsquarters; Table III, 4 WAT, .28 kg/h) was 3 (75-99% inhibition) and the “Plant Response Index (E)” value (Common Lambsquarters; [7]) was 3 (75-99% inhibition). For the same compound, the “Plant Response Index (G)” value (Yellow Nutsedge; 2 WAT, 5.6 kg/h) was 1 (25-49% inhibition), the “Plant Response Index (G)” value (Yellow Nutsedge; [11]) was 1 (25-49% inhibition) and the “Plant Response Index (G)” value (Yellow Nutsedge; 2 WAT, 11.2 kg/h) was 2 (50-74% inhibition). The “Plant Response Index (G)” value (Yellow Nutsedge; 2 WAT, 11.2 kg/h, formulated in anhydrous tetrahydrofuran) was 1 (25-49% inhibition), the “Plant Response Index (G)” value (Yellow Nutsedge; 4 WAT, 5.6 kg/h) was 2 (50-74% inhibition) and the “Plant Response Index (G)” value (Yellow Nutsedge; [12]) was 2 (50-74% inhibition). The “Plant Response Index (G)” value (Yellow Nutsedge; 4 WAT, 11.2 kg/h) was 3 (75-99% inhibition), the “Plant Response Index (G)” value (Yellow Nutsedge; 4 WAT, 11.2 kg/h, formulated in anhydrous tetrahydrofuran) was 2 (50-74% inhibition) and the “Plant Response Index (T)” value (Large Crabgrass; 2 WAT, 1.1 kg/h) was 4 (100% inhibition). The “Plant Response Index (T)” value (Large Crabgrass; 2 WAT, 1.1 kg/h, formulated in anhydrous tetrahydrofuran) was 3 (75-99% inhibition), the “Plant Response Index (T)” value (Large Crabgrass; [11]) was 3 (75-99% inhibition) and the “Plant Response Index (T)” value (Large Crabgrass; 2 WAT, .28 kg/h, formulated in anhydrous tetrahydrofuran) was 2 (50-74% inhibition). For the same compound, the “Plant Response Index (T)” value (Large Crabgrass; 4 WAT, 1.1 kg/h) was 4 (100% inhibition), the “Plant Response Index (T)” value (Large Crabgrass; 4 WAT, 1.1 kg/h, formulated in anhydrous tetrahydrofuran) was 3 (75-99% inhibition) and the “Plant Response Index (T)” value (Large Crabgrass; [12]) was 3 (75-99% inhibition). The “Plant Response Index (T)” value (Large Crabgrass; 4 WAT, .28 kg/h, formulated in anhydrous tetrahydrofuran) was 2 (50-74% inhibition).

Source: patent publication US4471131A, “Novel silyl esters of N-phosphonomethylglycine” (Monsanto Company, priority 1983, dated 1984)
